What all share (test): NCI anticancer screen, dose series, 48 h
For assay [1], the system named is K562.
For assay [2], the system named is SK-MEL-28.
For assay [3], the system named is OVCAR-4.
The subject of assay [4] is HCC 2998.
Assay [5] concerns HOP-62.
In assay [6] the test system is SF-539.
In assay [7] the test system is U-251.
Assay [8] relates to UO-31.
Assay [9] has as its system SNB-75.
The subject of assay [10] is UACC-62.
The subject of assay [11] is Malme-3M.
Assay [12] concerns COLO 205.
The test system of assay [13] is MOLT-4.
Assay [14] relates to SR.
The subject of assay [15] is SF-295.
Assay [16] concerns SK-MEL-5.

Molecules are shown by their SMILES.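 Values below derive from 48-hour exposures of cells grown in 96-well plates, with endpoints linearly interpolated between the two concentrations bracketing the appropriate inhibition level. The concentration for 50% growth inhibition is given as GI50.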 Activity calls are given as the source filed them. Rule as the data show it: active = GI50 up to about 1.1 µM and inactive = higher.

With `CCOC(=O)C1=C(Nc2ccccc2)SCC1=O`, the GI50 in [1] was > 100 µM (inactive); in assay [2], > 100 µM (inactive); in [3] it was 63.2 µM (inactive); in [4], > 100 µM (inactive); in [5], > 100 µM (inactive); in [6], > 100 µM (inactive). In addition, the GI50 was 10 µM (inactive) in [7]; > 100 µM (inactive) in assay [8]; > 100 µM (inactive) in assay [9]; > 100 µM (inactive) in assay [10]; > 100 µM (inactive) in [11]; > 100 µM (inactive) in assay [12]. For the same compound, the GI50 in assay [13], in [14] and in assay [15] was > 100 µM (inactive) each time.

Regarding `O=Cc1ccccc1OCCOc1cc(OCCOc2ccccc2C=O)c(OCCOc2ccccc2C=O)cc1OCCOc1ccccc1C=O`, the GI50 was 50.4 µM (inactive) in assay [1]; > 100 µM (inactive) in [2]; 39.9 µM (inactive) in assay [3]; > 100 µM (inactive) in assay [4]; 70.3 µM (inactive) in assay [5]; > 44.5 µM (inactive) in assay [6]. Moreover, the GI50 in assay [7] is 12.6 µM (inactive); in assay [8] it was > 52.8 µM (inactive); in [9] it was 8.07 µM (inactive); in assay [16], > 100 µM (inactive); in assay [10], > 100 µM (inactive); in assay [11] it was > 100 µM (inactive). Also, the GI50 in [12] was > 100 µM (inactive); in assay [13], > 45.1 µM (inactive); in [14] it was 39.8 µM (inactive).

Regarding `CCN(CC)C(=O)Cc1[nH][nH]c(=O)c1C(=O)N(CC)CC`, the GI50 in assay [1], in assay [2], in [3], in [4], in assay [5] and in assay [6] was > 100 µM (inactive) throughout. Moreover, the GI50 in assay [7], in [8], in [9], in assay [10], in [11] and in assay [12] was > 100 µM (inactive) in each case. The GI50 in [13], in assay [14] and in assay [15] was > 100 µM (inactive) each time.

In the case of `CC(=O)NC(CCCCN(Cc1ccccc1)C(=O)NCCCl)C(=O)NCc1ccccc1` (centres undefined), the GI50 in assay [1], in [2], in assay [3], in assay [4], in assay [5] and in assay [6] was > 100 µM (inactive) each time. Also, the GI50 in assay [7], in [8], in [9], in [10], in assay [11] and in assay [12] was > 100 µM (inactive) throughout. Further, the GI50 in assay [13], in assay [14] and in assay [15] was > 100 µM (inactive) in each case.

Consider `CCOC(=O)CN1C(=O)c2cccc3cc([N+](=O)[O-])cc(c23)C1=O`, for which the GI50 in assay [1] is 0.459 µM (active); in [2] it was 2.85 µM (inactive); in assay [3] it was 1.85 µM (inactive); in [4], 4.23 µM (inactive); in assay [5] it was 18.2 µM (inactive); in assay [6], 3.57 µM (inactive). The GI50 is 7.55 µM (inactive) in assay [7]; 14 µM (inactive) in assay [8]; 10.4 µM (inactive) in [9]; 12.4 µM (inactive) in assay [16]; 2.4 µM (inactive) in [10]; 2.45 µM (inactive) in [11]. In addition, the GI50 in [13] is 0.373 µM (active); in assay [14], 0.0525 µM (active).

For the origin of these results see ChEMBL document CHEMBL1201862, “PubChem BioAssay data set” (2004).
